Where “and” joins values, the source holds several entries; their conditions need not be identical. Equal entries are not always repeated.
Tested on: 323965-272-R-J2-PDC complex spheroid viability
Assay: Anticancer human tumor 323965-272-R-J2-PDC patient-derived pancreatic carcinoma cell line growth inhibition [CLK]
Details: for viability, T/C: stronger effect = lower value
Source text: A high-throughput screen of multi-cell type tumor spheroids was designed to identify active combinations of […] and targeted small molecules. Complex spheroids include a stromal component modeled by human endothelial cells (HUVEC) and fibroblasts modeled by human mesenchymal stem cells (MSCs). The concentration ranges selected for each drug and investigational agent were based upon clinically achievable concentrations if the clinical Cmax of the agent was known.
Compounds. The drugs and investigational agents: cirtuvivint (SM08502; NSC835563), CC-671 (NSC850746), vemurafenib (NSC761431), tapotoclax (NSC804041), sotorasib (NSC818433), adagrasib (NSC831453), MRTX-1133 (NSC836407), BAY2416964 (NSC825713), copanlisib (NSC816437), inavolisib (NSC800729), abemaciclib (NSC768073), osimertinib (NSC779217), entinostat (NSC756642), eltanexor (KPT-8602, NSC794443), venetoclax (NSC766270), ceralasertib (NSC777638), bortezomib (NSC756655), olaparib (NSC753686), talazoparib (NSC767125), alisertib (NSC759677), peposertib (NSC802822), gemcitabine (NSC613327), 5-fluorouracil (NSC19893), SN-38 (NSC673596), oxaliplatin (NSC266046), paclitaxel (NSC125973), and doxorubicin (NSC123127), were obtained from the National Cancer Institute (NCI) Developmental Therapeutics Program Chemical Repository. The FDA-approved anticancer drug set is available from the Developmental Therapeutics Program at https://dtp.cancer.gov/organization/dscb/obtaining/available plates.htm. […] The stock solutions were prepared in dimethyl sulfoxide (DMSO, Sigma-Aldrich, St. Louis, MO, cat. D2650), except for the platinum complexes which were prepared in saline (Quality Biological, Gaithersburg, MD, cat. 114-055-101), at 800-fold the tested concentration and stored at -70 degrees C prior to their use. All drugs and investigational agents were tested over a range starting from a high concentration at or near the clinical Cmax and decreasing in half-log increments. If the clinical Cmax for an agent had not been determined, the highest concentration tested was 10 microM.
Cell Culture. All cells were maintained in an incubator at 37 degrees C and 5% CO2 with 95% humidity. The PDC lines were cultured according to standard operating procedures established by the NCI PDMR. Briefly, all PDCs were thawed and cultured in Matrigel-coated flasks prepared with a working solution of 1X Ham's F-12 nutrient mix, without supplementation (Invitrogen, Waltham, MA, cat. 11765054), 100 U/mL penicillin-streptomycin (Invitrogen, cat. 15140122), and 2.5% Matrigel (Corning Inc., Corning, NY, cat. 354248) for the first three passages. The 947758-054-R-J2-PDC line was cultured in 6B/Colon 1A media, which includes advanced DMEM/F-12 (Thermo Fisher Scientific, cat. 12634028), 10 mM HEPES (Thermo Fisher Scientific, cat. 15630080), 1X GlutaMAX supplement (Thermo Fisher Scientific, cat. 35050061), 0.1 mg/mL primocin (InvivoGen, cat. ant-pm-2), 10% defined fetal bovine serum, heat inactivated (HyClone Laboratories Inc., cat. SH30070.03HI), 1.25 mM N-Acetyl-L-cysteine (Sigma-Aldrich, cat. A9165), 10 mM nicotinamide (Sigma-Aldrich, cat. N0636), 1X B-27 supplement (Thermo Fisher Scientific, cat. 17504044), 1X N-2 supplement (Thermo Fisher Scientific, cat. 17502048), and 10 microM Y-27632 dihydrochloride (Tocris Bioscience, cat. 1254). The 876862-298-R-J1-PDC was cultured in 6E media, which includes all 6B/Colon 1A media components plus 50% L-WRN conditioned media (ATCC, cat. CRL-3276), 50 ng/mL recombinant human EGF recombinant protein (hEGF; Thermo Fisher Scientific, cat. PHG0311), 10 ng/mL recombinant human fibroblast growth factor 10 (hGFG-10; PeproTech, cat. 100-26), 1 ng/mL recombinant human fibroblast growth factor 2 (hFGF-2; PeproTech, cat. 100-18B), and 1 µM prostaglandin E2 (PGE2; Tocris, cat. 2296). The 227483-062-R1-J1-PDC line was cultured in Panc media, containing all 6E components except hFGF-2, with the addition of 500 nM SB-431542 (Selleckchem, cat. S1067) and 10 nM gastrin (Tocris, cat. 3006). […]

[1] = curve of first compound, second compound 0.0316 µM
[2] = curve of first compound, second compound 0.1 µM
[3] = curve of first compound, second compound 0.316 µM
[4] = curve of first compound, second compound 1 µM
[5] = curve of first compound, second compound 3.16 µM
[6] = curve of first compound, second compound 10 µM
[7] = second compound 0.0316 µM, first compound 0.000949 µM
[8] = second compound 0.0316 µM, first compound 0.003 µM
[9] = second compound 0.0316 µM, first compound 0.00949 µM
[10] = second compound 0.0316 µM, first compound 0.03 µM
[11] = second compound 0.0316 µM, first compound 0.0949 µM
[12] = second compound 0.0316 µM, first compound 0.3 µM
[13] = second compound 0.1 µM, first compound 0.000949 µM
[14] = second compound 0.1 µM, first compound 0.003 µM
[15] = second compound 0.1 µM, first compound 0.00949 µM
[16] = second compound 0.1 µM, first compound 0.03 µM
[17] = second compound 0.1 µM, first compound 0.0949 µM
[18] = second compound 0.1 µM, first compound 0.3 µM
[19] = second compound 0.316 µM, first compound 0.000949 µM
[20] = second compound 0.316 µM, first compound 0.003 µM
[21] = second compound 0.316 µM, first compound 0.00949 µM
[22] = second compound 0.316 µM, first compound 0.03 µM
[23] = second compound 0.316 µM, first compound 0.0949 µM
[24] = second compound 0.316 µM, first compound 0.3 µM
[25] = second compound 1 µM, first compound 0.000949 µM
[26] = second compound 1 µM, first compound 0.003 µM
[27] = second compound 1 µM, first compound 0.00949 µM
[28] = second compound 1 µM, first compound 0.03 µM
[29] = second compound 1 µM, first compound 0.0949 µM
[30] = second compound 1 µM, first compound 0.3 µM
[31] = second compound 3.16 µM, first compound 0.000949 µM
[32] = second compound 3.16 µM, first compound 0.003 µM
[33] = second compound 3.16 µM, first compound 0.00949 µM
[34] = second compound 3.16 µM, first compound 0.03 µM
[35] = second compound 3.16 µM, first compound 0.0949 µM
[36] = second compound 3.16 µM, first compound 0.3 µM
[37] = second compound 10 µM, first compound 0.000949 µM
[38] = second compound 10 µM, first compound 0.003 µM
[39] = second compound 10 µM, first compound 0.00949 µM
[40] = second compound 10 µM, first compound 0.03 µM
[41] = second compound 10 µM, first compound 0.0949 µM
[42] = second compound 10 µM, first compound 0.3 µM
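Also: spheroids exposed to agents for seven days before readout.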
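For viability, T/C in this document: percent of DMSO vehicle control wells so 100% = untreated growth.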

In the case of C=CC(=O)Nc1cc(Nc2nccc(-c3cn(C)c4ccccc34)n2)c(OC)cc1N(C)CCN(C)C + CN1CCN(c2cc(C(=O)Nc3cc4cc(-c5cnn(C)c5)ccc4cn3)ccn2)CC1, the IC50 [1] is reported as > 300 nM, the IC50 [2] is reported as > 300 nM and the IC50 [3] is reported as < 0.949 nM. The IC50 [4] was < 0.949 nM, the IC50 [5] was < 0.949 nM and the IC50 [6] was < 0.949 nM. For the same molecule, the viability, T/C [7] was 92.1%, the viability, T/C [8] was 86.8% and the viability, T/C [9] was 89.3%. The viability, T/C [10] was 89.6%, the viability, T/C [11] was 82% and the viability, T/C [12] was 75.8%. The viability, T/C [13] was 73.2%, the viability, T/C [14] was 76.4% and the viability, T/C [15] was 59.1%. It also gave a viability, T/C [16] of 61.8%, a viability, T/C [17] of 52.2% and a viability, T/C [18] of 51.4%. For the same molecule, the viability, T/C [19] was 21.9%, the viability, T/C [20] was 26.8% and the viability, T/C [21] was 21.4%. It also gave a viability, T/C [22] of 19.1%, a viability, T/C [23] of 17.7% and a viability, T/C [24] of 17.3%. For the same molecule, the viability, T/C [25] was 3.35%, the viability, T/C [26] was 2.76% and the viability, T/C [27] was 7.03%. It also gave a viability, T/C [28] of 2.91%, a viability, T/C [29] of 2.48% and a viability, T/C [30] of 2.38%. For the same molecule, the viability, T/C [31] was 3.68%, the viability, T/C [32] was 3.94% and the viability, T/C [33] was 5.04%. The viability, T/C [34] was 2.7%, the viability, T/C [35] was 2.6% and the viability, T/C [36] was 3.13%. The viability, T/C [37] was 4.03%, the viability, T/C [38] was 4.64% and the viability, T/C [39] was 4.92%. The viability, T/C [40] was 3.05%, the viability, T/C [41] was 2.71% and the viability, T/C [42] was 3.08%.

Molecule CC(C)CC(NC(=O)C(Cc1ccccc1)NC(=O)c1cnccn1)B(O)O (stereo unspecified) + CNC(=O)c1ccc(Nc2nc(OC3CCCC3)c3c(-c4ccc5nc(C)oc5c4)c[nH]c3n2)c(OC)c1 has an IC50 [1] of 3.5 nM, an IC50 [2] of 3.84 nM and an IC50 [3] of 3.11 nM. The IC50 [4] was 1.72 nM, the IC50 [5] was < 0.949 nM and the IC50 [6] was 1.02 nM. The viability, T/C [7] was 144%, the viability, T/C [8] was 57.1% and the viability, T/C [9] was 3.74%. It also gave a viability, T/C [10] of 0.63%, a viability, T/C [11] of 0.4% and a viability, T/C [12] of 1.5%. The viability, T/C [13] was 97.1%, the viability, T/C [14] was 62.7% and the viability, T/C [15] was 3.57%. It also gave a viability, T/C [16] of 0.66%, a viability, T/C [17] of 0.72% and a viability, T/C [18] of 3.02%. It also gave a viability, T/C [19] of 77.6%, a viability, T/C [20] of 51.5% and a viability, T/C [21] of 3.56%. The viability, T/C [22] was 0.65%, the viability, T/C [23] was 0.61% and the viability, T/C [24] was 0.43%. The viability, T/C [25] was 62.9%, the viability, T/C [26] was 38% and the viability, T/C [27] was 3.86%. For the same molecule, the viability, T/C [28] was 0.86%, the viability, T/C [29] was 1.19% and the viability, T/C [30] was 1.58%. For the same molecule, the viability, T/C [31] was 48.7%, the viability, T/C [32] was 28.7% and the viability, T/C [33] was 1.87%. For the same molecule, the viability, T/C [34] was 0.28%, the viability, T/C [35] was 0.73% and the viability, T/C [36] was 1.18%. For the same molecule, the viability, T/C [37] was 51.6%, the viability, T/C [38] was 24.5% and the viability, T/C [39] was 1.13%. It also gave a viability, T/C [40] of 0.33%, a viability, T/C [41] of 0.86% and a viability, T/C [42] of 2.07%.

For CC1COCCN1c1cc(C2(S(C)(=N)=O)CC2)nc(-c2ccnc3[nH]ccc23)n1 (stereo unspecified), the viability, T/C (compound 0.0316 µM) was 103% and 106%, the viability, T/C (compound 0.1 µM) was 99.9% and 91.9% and the viability, T/C (compound 0.316 µM) was 90.5% and 90.1%. The viability, T/C (compound 1 µM) was 70.1% and 62.4%, the viability, T/C (compound 3.16 µM) was 37.1% and 40.2% and the viability, T/C (compound 10 µM) was 31.6% and 31%. For the same molecule, the IC50 (curve of compound) was 2070 nM and 1960 nM.

From PubChem BioAssay AID2060619 (Molecular Pharmacology Branch, DTP, NCI, 2025)
